Patent US10752624B2, “Kinase inhibitors” (Origenis GmbH, priority 2012, dated 2020)

Experiments:
[1] = target: LRRK2 (Homo sapiens, UniProt Q5S007); assay: LRRK2-LRRK2 G2019S-Assay (LanthaScreen Eu Kinase Binding Assay); details: 5 nM LRRK2, 10 nM tracer 236, 2 nM EU-Anti-GST antibody, 1 h at RT; read-out: LRRK2 Activities: IC50
Outline: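 Compound competition with Alexa Fluor 647 tracer 236 (10 nM) was measured after 1 h at room temperature, using 5 nM LRRK2 (wild type or mutant) bound to 2 nM Eu-anti-GST antibody. IC50 was derived from the acceptor/donor (665/615 nm) ratio using a variable-slope dose-response fit.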

[2] = target: T1, SYK kinase (Homo sapiens, UniProt P43405); assay: SYK Assay (OMNIA Kinase Assay, SOX peptide fluorescence); type: biochemical; details: 1 mM ATP, 10 μM Omnia Peptide Substrate Tyr 7, 30° C., readings for 30 minutes; read-out: SYK Activities: IC50
T1 construct: purchased Invitrogen, Carlsbad
Experimental: In the assay OMNIA® KINASE ASSAY by Invitrogen Corporation (Carlsbad) the effect of invention of a compound on the phosphorylation is determined by measurement of fluorescence intensity of a chelation-enhanced fluorophore called SOX. Upon phosphorylation of the peptide by the kinase of interest, Mg2+ is chelated to form a bridge between the SOX moiety and the phosphate group that is transferred to the specific tyrosine on the peptide. The fluorescence intensity is directly proportional to the amount of peptide phosphorylation.
To the wells of an 384 well small volume plate (Greiner, Frickenhausen) are added (i) the compound under test in 5% DMSO/distilled water (2 μl), (ii) 16 μl of the master mix containing ATP, DTT, Kinase Reaction Buffer, Omina Peptide Substrate Tyr 7 resulting in a final concentration of 1 mM ATP, 0.2 mM DTT and 10 μM Peptide Substrate.
The Master Mix and the assay plate was incubated to reaction temperature before the measurement (30° C.). The reaction was started with addition of (iii) 2 μl 4 μg/ml SYK kinase (Invitrogen, Carlsbad). During measurement fluorescence intensity readings were collected using a TECAN M1000 at a wavelength of λex 360/λem 485 nm every 30 s for 30 minutes. The reaction velocity was plotted versus the inhibitor concentration to determine the IC50 using XLFit 5.0 (IDBS, Guildford) to fit to a sigmoidal dose response curve.

Sequence of LRRK2 (Q5S007 970-2527 limits assumed): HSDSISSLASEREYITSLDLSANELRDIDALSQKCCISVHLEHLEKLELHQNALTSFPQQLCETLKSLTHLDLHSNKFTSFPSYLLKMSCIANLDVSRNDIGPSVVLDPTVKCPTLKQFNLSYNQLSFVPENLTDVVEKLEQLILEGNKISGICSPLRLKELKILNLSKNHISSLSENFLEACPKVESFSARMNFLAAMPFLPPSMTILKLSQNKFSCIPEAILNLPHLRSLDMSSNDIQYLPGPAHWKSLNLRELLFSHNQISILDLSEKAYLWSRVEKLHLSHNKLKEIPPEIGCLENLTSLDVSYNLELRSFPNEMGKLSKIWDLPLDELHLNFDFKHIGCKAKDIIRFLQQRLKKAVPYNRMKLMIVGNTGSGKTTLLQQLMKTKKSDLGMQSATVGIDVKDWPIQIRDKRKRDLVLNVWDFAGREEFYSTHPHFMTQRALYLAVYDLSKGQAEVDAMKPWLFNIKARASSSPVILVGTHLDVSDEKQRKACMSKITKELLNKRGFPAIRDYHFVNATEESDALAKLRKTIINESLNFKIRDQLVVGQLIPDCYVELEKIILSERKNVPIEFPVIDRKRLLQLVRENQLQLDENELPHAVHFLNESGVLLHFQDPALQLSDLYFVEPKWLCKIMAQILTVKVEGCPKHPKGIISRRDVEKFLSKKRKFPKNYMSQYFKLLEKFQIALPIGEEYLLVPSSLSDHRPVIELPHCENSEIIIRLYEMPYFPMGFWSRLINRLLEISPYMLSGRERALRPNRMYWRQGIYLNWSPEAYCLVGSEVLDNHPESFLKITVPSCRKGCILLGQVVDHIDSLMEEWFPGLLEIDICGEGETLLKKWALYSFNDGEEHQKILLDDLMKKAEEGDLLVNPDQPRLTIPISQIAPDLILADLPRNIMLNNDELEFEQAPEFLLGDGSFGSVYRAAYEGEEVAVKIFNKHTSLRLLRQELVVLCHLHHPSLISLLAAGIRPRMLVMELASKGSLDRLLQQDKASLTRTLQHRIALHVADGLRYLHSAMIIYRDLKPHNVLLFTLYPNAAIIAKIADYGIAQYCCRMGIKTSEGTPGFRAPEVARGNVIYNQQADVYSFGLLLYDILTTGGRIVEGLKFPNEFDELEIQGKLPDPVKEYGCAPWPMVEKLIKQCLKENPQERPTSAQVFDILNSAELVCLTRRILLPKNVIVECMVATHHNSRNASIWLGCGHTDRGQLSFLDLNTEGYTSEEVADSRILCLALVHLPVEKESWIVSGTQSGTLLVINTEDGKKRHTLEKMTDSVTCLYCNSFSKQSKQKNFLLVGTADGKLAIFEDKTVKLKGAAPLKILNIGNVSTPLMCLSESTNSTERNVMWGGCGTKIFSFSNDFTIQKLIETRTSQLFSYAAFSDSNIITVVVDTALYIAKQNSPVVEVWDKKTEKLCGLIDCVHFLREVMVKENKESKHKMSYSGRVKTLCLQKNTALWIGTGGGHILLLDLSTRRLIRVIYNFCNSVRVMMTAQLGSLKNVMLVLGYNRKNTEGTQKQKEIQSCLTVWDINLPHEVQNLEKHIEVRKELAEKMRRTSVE

SMILES: CN1CCC(n2cc(Nc3nc4cc(S(C)(=O)=O)ccc4c4cn[nH]c34)cn2)CC1 [Example 167, N-(1-(1-methylpiperidin-4-yl)-1H-pyrazol-4-yl)-7-(methylsulfonyl)-3H-pyrazolo[3,4-c]quinolin-4-amine]
- IC50 [1]: 100 to 1000 nM
- IC50 [2]: 10 to 100 nM

SMILES: CC(=O)N1CCC(n2cc(Nc3nc4cc(S(C)(=O)=O)ccc4c4cn[nH]c34)cn2)CC1 [Example 168, 1-(4-(4-((7-(methylsulfonyl)-3H-pyrazolo[3,4-c]quinolin-4-yl)amino)-1H-pyrazol-1-yl)piperidin-1-yl)ethan-1-one]
- IC50 [1]: 10 to 100 nM
- IC50 [2]: 10 to 100 nM

SMILES: COCCn1cc(Nc2nc3cc(S(C)(=O)=O)ccc3c3cn[nH]c23)cn1 [Example 170, N-(1-(2-methoxyethyl)-1H-pyrazol-4-yl)-7-(methylsulfonyl)-3H-pyrazolo[3,4-c]quinolin-4-amine]
- IC50 [1]: 100 to 1000 nM
- IC50 [2]: 100 to 1000 nM

SMILES: COCCn1cc(Nc2nc3cc(SC)ccc3c3cn[nH]c23)cn1 [Example 171, N-(1-(2-methoxyethyl)-1H-pyrazol-4-yl)-7-(methylthio)-3H-pyrazolo[3,4-c]quinolin-4-amine]
- IC50 [1]: 100 to 1000 nM
- IC50 [2]: 100 to 1000 nM

SMILES: CC(C)(C#N)n1cc(Nc2nc3ccc(S(C)(=O)=O)cc3c3cn[nH]c23)cn1 [Example 172, 2-methyl-2-(4-((8-(methylsulfonyl)-3H-pyrazolo[3,4-c]quinolin-4-yl)amino)-1H-pyrazol-1-yl)propanenitrile]
- IC50 [1]: 10 to 100 nM
- IC50 [2]: < 10 nM

SMILES: CS(=O)(=O)c1ccc2nc(Nc3cnn(C4COC4)c3)c3[nH]ncc3c2c1 [Example 173, 8-(methylsulfonyl)-N-(1-(oxetan-3-yl)-1H-pyrazol-4-yl)-3H-pyrazolo[3,4-c]quinolin-4-amine]
- IC50 [1]: 10 to 100 nM
- IC50 [2]: < 10 nM

SMILES: CS(=O)(=O)c1ccc2nc(Nc3ccc(C(=O)N4CCOCC4)c(F)c3)c3[nH]ncc3c2c1 [Example 175, (2-fluoro-4-((8-(methylsulfonyl)-3H-pyrazolo[3,4-c]quinolin-4-yl)amino)phenyl)(morpholino)methanone]
- IC50 [1]: 10 to 100 nM
- IC50 [2]: 100 to 1000 nM

SMILES: COCCCn1cc(Nc2nc3ccc(S(C)(=O)=O)cc3c3cn[nH]c23)cn1 [Example 178, N-(1-(3-methoxypropyl)-1H-pyrazol-4-yl)-8-(methylsulfonyl)-3H-pyrazolo[3,4-c]quinolin-4-amine]
- IC50 [1]: < 10 nM
- IC50 [2]: 10 to 100 nM

SMILES: CS(=O)(=O)c1ccc2nc(Nc3cnn(C4(C#N)CCCCC4)c3)c3[nH]ncc3c2c1 [Example 179, 1-(4-((8-(methylsulfonyl)-3H-pyrazolo[3,4-c]quinolin-4-yl)amino)-1H-pyrazol-1-yl)cyclohexanecarbonitrile]
- IC50 [1]: < 10 nM
- IC50 [2]: 10 to 100 nM

SMILES: CC(C)n1cc(Nc2nc3ccc(S(C)(=O)=O)cc3c3cn[nH]c23)cn1 [Example 180, N-(1-isopropyl-1H-pyrazol-4-yl)-8-(methylsulfonyl)-3H-pyrazolo[3,4-c]quinolin-4-amine]
- IC50 [1]: < 10 nM
- IC50 [2]: < 10 nM

SMILES: COc1cccc2nc(Nc3cnn(C(C)C)c3)c3[nH]ncc3c12 [Example 182, N-(1-isopropyl-1H-pyrazol-4-yl)-9-methoxy-3H-pyrazolo[3,4-c]quinolin-4-amine]
- IC50 [1]: < 10 nM
- IC50 [2]: 10 to 100 nM

SMILES: COCCCn1cc(Nc2nc3cccc(OC)c3c3cn[nH]c23)cn1 [Example 183, 9-methoxy-N-(1-(3-methoxypropyl)-1H-pyrazol-4-yl)-3H-pyrazolo[3,4-c]quinolin-4-amine]
- IC50 [1]: < 10 nM
- IC50 [2]: 100 to 1000 nM

SMILES: COc1cccc2nc(Nc3cnn(C(C)(C)C#N)c3)c3[nH]ncc3c12 [Example 184, 2-(4-((9-methoxy-3H-pyrazolo[3,4-c]quinolin-4-yl)amino)-1H-pyrazol-1-yl)-2-methylpropanenitrile]
- IC50 [1]: < 10 nM
- IC50 [2]: 10 to 100 nM

SMILES: CS(=O)(=O)c1ccc2nc(Nc3cnn(CCO)c3)c3[nH]ncc3c2c1 [Example 186, 2-(4-((8-(methylsulfonyl)-3H-pyrazolo[3,4-c]quinolin-4-yl)amino)-1H-pyrazol-1-yl)ethan-1-ol]
- IC50 [1]: < 10 nM
- IC50 [2]: 10 to 100 nM

SMILES: CC(C)Cn1cc(Nc2nc3ccc(S(C)(=O)=O)cc3c3cn[nH]c23)cn1 [Example 187, N-(1-isobutyl-1H-pyrazol-4-yl)-8-(methylsulfonyl)-3H-pyrazolo[3,4-c]quinolin-4-amine]
- IC50 [1]: < 10 nM
- IC50 [2]: 10 to 100 nM

SMILES: CC(C)(C)n1cc(Nc2nc3cc(S(C)(=O)=O)ccc3c3cn[nH]c23)cn1 [Example 188, N-(1-(tert-butyl)-1H-pyrazol-4-yl)-7-(methylsulfonyl)-3H-pyrazolo[3,4-c]quinolin-4-amine]
- IC50 [1]: 10 to 100 nM
- IC50 [2]: 100 to 1000 nM

SMILES: CC(C)n1cc(Nc2nc3cc(S(C)(=O)=O)ccc3c3cn[nH]c23)cn1 [Example 189, N-(1-isopropyl-1H-pyrazol-4-yl)-7-(methylsulfonyl)-3H-pyrazolo[3,4-c]quinolin-4-amine]
- IC50 [1]: 10 to 100 nM
- IC50 [2]: 10 to 100 nM

SMILES: COCCCn1cc(Nc2nc3cc(S(C)(=O)=O)ccc3c3cn[nH]c23)cn1 [Example 190, N-(1-(3-methoxypropyl)-1H-pyrazol-4-yl)-7-(methylsulfonyl)-3H-pyrazolo[3,4-c]quinolin-4-amine]
- IC50 [1]: 10 to 100 nM
- IC50 [2]: 10 to 100 nM

SMILES: CC(C)(C#N)n1cc(Nc2nc3cc(S(C)(=O)=O)ccc3c3cn[nH]c23)cn1 [Example 191, 2-methyl-2-(4-((7-(methylsulfonyl)-3H-pyrazolo[3,4-c]quinolin-4-yl)amino)-1H-pyrazol-1-yl)propanenitrile]
- IC50 [1]: 10 to 100 nM
- IC50 [2]: 100 to 1000 nM

SMILES: CC(C)Cn1cc(Nc2nc3cc(S(C)(=O)=O)ccc3c3cn[nH]c23)cn1 [Example 192, N-(1-isobutyl-1H-pyrazol-4-yl)-7-(methylsulfonyl)-3H-pyrazolo[3,4-c]quinolin-4-amine]
- IC50 [1]: 10 to 100 nM
- IC50 [2]: 10 to 100 nM

SMILES: CS(=O)(=O)c1ccc2c(c1)nc(Nc1cnn(CCO)c1)c1[nH]ncc12 [Example 193, 2-(4-((7-(methylsulfonyl)-3H-pyrazolo[3,4-c]quinolin-4-yl)amino)-1H-pyrazol-1-yl)ethan-1-ol]
- IC50 [1]: < 10 nM
- IC50 [2]: 10 to 100 nM

SMILES: CC(C)(C)n1cc(Nc2nc3ccc(S(C)(=O)=O)cc3c3cn[nH]c23)cn1 [Example 195, N-(1-(tert-butyl)-1H-pyrazol-4-yl)-8-(methylsulfonyl)-3H-pyrazolo[3,4-c]quinolin-4-amine]
- IC50 [1]: < 10 nM
- IC50 [2]: 10 to 100 nM

SMILES: COc1cc(C(=O)N2CCOCC2)ccc1Nc1nc2ccc(S(C)(=O)=O)cc2c2cn[nH]c12 [Example 196, (3-methoxy-4-((8-(methylsulfonyl)-3H-pyrazolo[3,4-c]quinolin-4-yl)amino)phenyl)(morpholino)methanone]
- IC50 [1]: 10 to 100 nM
- IC50 [2]: 100 to 1000 nM

SMILES: CS(=O)(=O)c1ccc2c(c1)nc(Nc1cnn(C3CC3)c1)c1[nH]ncc12 [Example 197, N-(1-cyclopropyl-1H-pyrazol-4-yl)-7-(methylsulfonyl)-3H-pyrazolo[3,4-c]quinolin-4-amine]
- IC50 [1]: 10 to 100 nM
- IC50 [2]: 10 to 100 nM

SMILES: COc1cccc2nc(Nc3cnn(CC(C)C)c3)c3[nH]ncc3c12 [Example 198, N-(1-isobutyl-1H-pyrazol-4-yl)-9-methoxy-3H-pyrazolo[3,4-c]quinolin-4-amine]
- IC50 [1]: < 10 nM
- IC50 [2]: 100 to 1000 nM

SMILES: COc1cccc2nc(Nc3cnn(CCO)c3)c3[nH]ncc3c12 [Example 199, 2-(4-((9-methoxy-3H-pyrazolo[3,4-c]quinolin-4-yl)amino)-1H-pyrazol-1-yl)ethan-1-ol]
- IC50 [1]: < 10 nM
- IC50 [2]: 100 to 1000 nM

SMILES: COc1cccc2nc(Nc3cnn(C4CC4)c3)c3[nH]ncc3c12 [Example 201, N-(1-cyclopropyl-1H-pyrazol-4-yl)-9-methoxy-3H-pyrazolo[3,4-c]quinolin-4-amine]
- IC50 [1]: < 10 nM
- IC50 [2]: 100 to 1000 nM

SMILES: CS(=O)(=O)c1ccc2nc(Nc3cnn(C4CC4)c3)c3[nH]ncc3c2c1 [Example 203, N-(1-cyclopropyl-1H-pyrazol-4-yl)-8-(methylsulfonyl)-3H-pyrazolo[3,4-c]quinolin-4-amine]
- IC50 [1]: < 10 nM
- IC50 [2]: < 10 nM

SMILES: COCC(C)(C)n1cc(Nc2nc3cccc(OC)c3c3cn[nH]c23)cn1 [Example 204, 9-methoxy-N-(1-(1-methoxy-2-methylpropan-2-yl)-1H-pyrazol-4-yl)-3H-pyrazolo[3,4-c]quinolin-4-amine]
- IC50 [1]: < 10 nM
- IC50 [2]: 100 to 1000 nM

SMILES: COc1cccc2nc(Nc3cnn(C4CCN(C(C)(C)C)CC4)c3)c3[nH]ncc3c12 [Example 206, N-(1-(1-(tert-butyl)piperidin-4-yl)-1H-pyrazol-4-yl)-9-methoxy-3H-pyrazolo[3,4-c]quinolin-4-amine]
- IC50 [1]: < 10 nM
- IC50 [2]: 10 to 100 nM
